Assays:
ALX = molecular target: T1, ALX (Homo sapiens, UniProt P25090); test: Ca2+ imaging (Fura-2AM) in HEK293 cells transfected with ALX cDNA; type: cell-based; conditions: HEK293 cells expressing ALX
T1 construct: host or cells: HEK293 flip-in cells
T1 sequence (P25090 1-351): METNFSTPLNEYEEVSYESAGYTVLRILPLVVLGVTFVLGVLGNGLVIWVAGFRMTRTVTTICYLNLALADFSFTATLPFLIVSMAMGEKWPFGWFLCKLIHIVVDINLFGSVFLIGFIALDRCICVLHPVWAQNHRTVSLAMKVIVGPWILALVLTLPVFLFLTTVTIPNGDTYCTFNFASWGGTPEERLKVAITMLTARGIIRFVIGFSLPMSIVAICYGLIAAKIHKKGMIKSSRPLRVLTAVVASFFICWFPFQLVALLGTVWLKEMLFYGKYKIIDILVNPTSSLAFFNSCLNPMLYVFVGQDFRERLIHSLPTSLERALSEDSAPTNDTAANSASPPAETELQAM
Text: (§1) FIG. 10A-FIG. 10C. Characterization of intracellular Ca^2+ changes in HEK293 cells expressing ChemR23, GPR32, and ALX. Ca^2+ imaging with Fura-2AM indicator showing iCa^2+ levels in HEK293 cells transfected with ChemR23 (FIG. 10A), GPR32 (FIG. 10B), and ALX (FIG. 10C) cDNAs. Note that NPD1 fails to elicit iCa^2+ increase in HEK293 cells expressing ChemR23, GPR32, and ALX. […] ATP is included as a positive control. *P<0.05, compared with baseline n=44˜97 cells from 3 cultures. All the data are expressed as mean±s.e.m.
(§2) HEK cell culture and transfection. HEK293 flip-in cell line was purchased from Duke Cell Culture Facility. Cells were cultured in high glucose (4.5 g/L) Dulbecco's Modified Eagle's Medium containing 10% (v/v) fetal bovine serum (Gibco). Transfection (2 μg cDNA) was performed with Lonza electroporation (Lonza) at 70% confluency and the transfected cells were cultured in the same growth medium for 48 h before use. The hGPR37-V5 pLenti304 plasmids were obtained from DNASU (Tempe, AZ), and hGPR32, hChemR23 and hALX pcDNA3 plasmids were provided by Dr. Serhan from Harvard Medical School, Boston.
(§3) Calcium imaging. HEK 293 cells, with or without transfection of Gpr37, GPR32, ChemR23 or ALX1 cDNA, were loaded with 5 μM Fura-2AM (Invitrogen) for 1 hour and then were resuspended in normal external buffer (140 NaCl, 5 KCl, 2 CaCl2, 2 MgCl2, 10 HEPES, in mM, titrated to pH 7.4 with NaOH) or external Ca^2+-free buffer (140 NaCl, 2 MgCl2, 5 EGTA, 10 HEPES, in mM, titrated to pH 7.4 with NaOH). Peritoneal macrophages, collected from WT and Gpr37 KO mice, were loaded with 5 μM […] (Invitrogen) for 1 hour and then were resuspended in normal external buffer. Images of the HEK 293 cells and macrophages with the excitation wavelength of 340 nm and 380 nm were captured with a cooled Digital CMOS camera (ORCA-Flash 4.0, Hamamatsu Photonics K.K, Japan). The ratio of fluorescence intensity of the two wavelengths in each experiment was analyzed using MetaFluor (Molecular Devices). The Shutter speed and wavelength was controlled by Lambda DG-4 system (Sutter instrument Co., Novato, CA). Values from each of the experiments were normalized to the baseline ratio of 340/380 nm.
Several SPM receptors have been identified such as ChemR23 for RvE1, GPR32 for RvD1, and ALX for lipoxin A. We transfected human cDNAs of ChemR23, GPR32, and ALX in HEK293 cells and checked Ca^2+ responses following the treatment of each SPM.

GPR37 = molecular target: T2, GPR37 (Homo sapiens, UniProt O15354); test: Dot blot binding assay with lysates of HEK293 cells with GPR37 cDNA or mock transfection; conditions: for binding to GPR37-containing lysates: blots coated with different concentrations, lysates of HEK293 cells with GPR37 cDNA
T2 construct: host or cells: HEK293 flip-in cells
T2 sequence (O15354 27-613): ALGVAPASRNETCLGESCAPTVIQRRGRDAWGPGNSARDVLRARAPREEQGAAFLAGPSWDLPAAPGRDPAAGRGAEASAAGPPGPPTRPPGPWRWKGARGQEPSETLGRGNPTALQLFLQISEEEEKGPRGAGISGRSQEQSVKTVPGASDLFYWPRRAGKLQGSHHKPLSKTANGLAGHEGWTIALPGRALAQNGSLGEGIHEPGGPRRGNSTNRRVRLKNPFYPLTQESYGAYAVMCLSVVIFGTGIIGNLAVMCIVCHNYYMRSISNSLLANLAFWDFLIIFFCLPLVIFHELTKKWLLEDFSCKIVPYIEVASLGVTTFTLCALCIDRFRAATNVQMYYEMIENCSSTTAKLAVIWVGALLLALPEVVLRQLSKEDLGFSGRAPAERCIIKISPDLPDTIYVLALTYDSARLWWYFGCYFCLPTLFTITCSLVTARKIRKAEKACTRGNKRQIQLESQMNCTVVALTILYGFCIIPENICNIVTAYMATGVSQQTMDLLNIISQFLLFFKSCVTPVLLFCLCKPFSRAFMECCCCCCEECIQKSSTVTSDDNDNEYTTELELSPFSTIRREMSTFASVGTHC
Method: (§4) Lipids overlay assay. Lipids membrane coating and protein overlay assay was conducted as previously described (Ji R R, et al. Science 2016, 354, 572-577). Ethanol and chloroform soluble fatty acids were directly loaded on hydrophobic PVDF membrane (Bio-Rad). The fatty acids (NPD1, RvD1, RvE1, and DHA) coated membranes were dried and blocked with 1% BSA. The cell lysate and purified GPR37-V5 protein were incubated with the coating membrane for 2 h, and the binding was detected by anti-V5 tagged antibody (mouse, 1:1000, Thermo scientific, Catalog: 46-0705).
as §2
To determine whether NPD1 and TX14 bind to GPR37, we conducted dot blot assay by coating the blots with different concentrations of NPD1 and TX14 and included RvE1 as a control. The blots were then incubated with cell lysates from HEK293 cells with GPR37 cDNA or Mock transfection.

GPR32 [1] = molecular target: T3, GPR32 (Homo sapiens, UniProt O75388); test: Ca2+ imaging (Fura-2AM) in HEK293 cells transfected with GPR32 cDNA; type: cell-based; conditions: HEK293 cells expressing GPR32; RvD1 100 nM
T3 construct: host or cells: HEK293 flip-in cells
Text: as §1, §2
as §3, with “Values from each of the experiments were normalized to the baseline ratio of 340/380 nm.” left out

GPR32 [2] = molecular target: T3, GPR32; test: Dot blot binding assay, positive control GPR32
Method: as §4, §2
To determine whether NPD1 and TX14 bind to GPR37, we conducted dot blot assay by coating the blots with different concentrations of NPD1 and TX14 and included RvE1 as a control. […]

T3 sequence (O75388 whole entry): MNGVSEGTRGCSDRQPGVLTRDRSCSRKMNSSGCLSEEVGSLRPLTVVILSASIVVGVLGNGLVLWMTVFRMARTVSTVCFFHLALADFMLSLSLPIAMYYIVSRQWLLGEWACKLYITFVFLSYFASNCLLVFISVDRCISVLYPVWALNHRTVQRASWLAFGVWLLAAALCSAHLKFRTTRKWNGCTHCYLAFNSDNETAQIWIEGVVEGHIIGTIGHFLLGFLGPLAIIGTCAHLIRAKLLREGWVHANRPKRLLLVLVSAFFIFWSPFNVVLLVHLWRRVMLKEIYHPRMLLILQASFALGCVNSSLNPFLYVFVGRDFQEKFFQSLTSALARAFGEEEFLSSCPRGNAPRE

SMILES | iCa2+ increase / Ca2+ response (ALX) | binding to GPR37-containing lysates (GPR37) | binding affinity to GPR37, comparison (GPR37; dose-response curve analysis) | binding of lysates from mock transfection (GPR37-negative) (GPR37; mock-transfected HEK293 lysates) | iCa2+ increase / Ca2+ response (GPR32 [1]) | binding to GPR32 (GPR32 [2])
CC/C=C\C[C@H](O)\C=C/C=C/C=C/[C@H](O)C/C=C\C/C=C\CCC(=O)O [NPD1, neuroprotectin D1] | failed to elicit iCa^2+ increase | dose-dependent binding | higher binding affinity to GPR37 than TX14 | did not show binding activities | failed to elicit iCa^2+ increase | –
CC/C=C\C[C@H](O)/C=C/C=C\C=C\C=C\[C@@H](O)[C@@H](O)C/C=C\CCC(=O)O [RvD1] | – | – | – | – | failed to evoke Ca^2+ responses | strong binding
CC[C@@H](O)/C=C/C=C\C[C@@H](O)/C=C/C=C/C=C\[C@@H](O)CCCC(=O)O [RvE1] | – | not | – | – | – | –

Source: patent US12521356B2, “Compositions and methods for treating pain, inflammation, infection, malaria, and sepsis” (Duke University, priority 2018, dated 2026)
